In patent US20120028897A1, “METHODS AND COMPOSITIONS FOR THE TREATMENT OF FLUID RETENTION DISORDERS” (priority 2008, published 2012):

Legend:
[1] = Interconversion of huUgn A and B isomers in vitro (storage at −80° C.; pH 4, 50° C.); type: physicochemical; conditions: LC-MS at periodic intervals
Experimental: FIG. 2C is a graph showing the amount of “UgnA like” activity as a function of time in cells treated with either huUgnA and huUgnB. The A and B isomers (filled and open circles, respectively) interconvert slowly in vitro. Peptides were incubated at 50° C. in 1 mM citrate buffer (pH 4) for either 0, 24, or 48 hr. Samples were then diluted into bioassay medium, the pH was adjusted to 7.0, and activity was measured in the T84 cell bioassay. A huUgnA standard curve was generated in the same assay, and cyclic GMP responses were converted to recoveries of “UgnA-like” peptide by interpolation on this standard curve.
HPLC analysis and mass spectroscopy of Ugn isomers. The integrity and purity of huUgnA and B isomer preparations were confirmed by liquid chromatography/mass spectroscopy (LC-MS) analysis. The two Ugn isomers have different retention times on a reverse phase HPLC column (FIG. 1, dashed trace; huUgnA elutes ˜0.35 minutes before huUgnB). Separations were performed on a Hypersil Gold AQ 2.1×50 mm column from Thermo Fisher Scientific Inc (Waltham, Mass.) equilibrated in 98% buffer A (0.1% formic acid), 2% buffer B (85:10:5 Acetonitrile/Isopropyl Alcohol/5 mM NH4OAc pH 5.8) with a flow rate of 0.4 ml/min on an Acquity HPLC system. […]

[2] = Urinary excretion and isomer identity after iv infusion (T84 bioassay and LC-MS of urine); type: in vivo, rat; conditions: for stability of identity and properties in vivo: infused rats; for GC-C stimulating activity recovered in urine: T84 bioassay
Experimental: FIG. 3A is a graph showing urinary excretion of “UgnA like” activity as a function of time in animals treated with the either huUgnA (filled symbols) or huUgnB (open symbols). huUgn was infused into an anesthetized rat during the period indicated by the horizontal bar. […] A sample of the urine acquired during each clearance period was evaluated for activity in the T84 cell bioassay. The resulting cyclic GMP responses were then converted to apparent recoveries of “UgnA-like” peptide by interpolation on a huUgnA standard curve (constructed as in FIG. 1A). Appropriate dilutions were chosen to ensure that the activity in each sample would not saturate this assay.
(§1) After post-surgical equilibration (−60 min) and three 20 min control clearance periods, huUgnA or B was infused into the jugular vein at 10 μl/min over a 60 min period, followed by a return to isotonic saline for the remainder of the experiment. The infused doses of huUgnA were 12, 25, 50, 100, or 200 nmol/kg BW in a total of 38 rats; huUgnB doses were 9, 18, 35, 70, and 140 nmol/kg BW in 35 rats. A UgnA mimetic, E. coli STh (ST-core), was infused into a third group of 32 rats at doses of 17, 32, 66, 133, and 266 nmol/kg. Renal excretory responses to these infusions were slow to develop and long lasting, so clearance periods were continued for 2-3 hr after the termination of the peptide infusion. This protracted time course limited protocols to one dose of one peptide in each rat. A control group of 10 rats received isotonic saline at 10 μl/min in place of the peptide infusion, but was otherwise treated in the same way as the experimental groups.
HPLC analysis and mass spectroscopy of Ugn isomers. The integrity and purity of huUgnA and B isomer preparations were confirmed by liquid chromatography/mass spectroscopy (LC-MS) analysis. The two Ugn isomers have different retention times on a reverse phase HPLC column (FIG. 1, dashed trace; huUgnA elutes ˜0.35 minutes before huUgnB). Separations were performed on a Hypersil Gold AQ 2.1×50 mm column from Thermo Fisher Scientific Inc (Waltham, Mass.) equilibrated in 98% buffer A (0.1% formic acid), 2% buffer B (85:10:5 Acetonitrile/Isopropyl Alcohol/5 mM NH4OAc pH 5.8) with a flow rate of 0.4 ml/min on an Acquity HPLC system. After a 2.5 minute wash with the same buffers, peptides were eluted with a linear gradient of 2% buffer B to 80% buffer B over 25 minutes and held for one minute before an increase to 90% B over 2 minutes to wash the column, followed by a return to 2% buffer B over 3 minutes.
Peptide masses were determined using a Micromass Q-T of II instrument equipped with an electrospray ionization (ESI) source operating in positive ion mode. The instrument was programmed to scan in the mass range of m/z 100 to 1800. Molecular weight predictions and data analysis were carried out with MassLynx version 4.0 software. […] were injected directly without any sample preparation using an Acquity HPLC system connected in line with the Q-T of II.
Bioassay of huUgnA-like activity. The concentration of huUgnA-like bioactivity in infused peptide solutions and in urine collected during experiments was measured using a T84 cell-based bioassay, as described previously. T84 cells are a colon carcinoma cell line that increases cyclic GMP production in response to GC-C receptor agonists such as Ugn, Gn and ST core peptide. T84 cells were grown to near confluence in 12 well culture clusters, and then incubated with unknowns or standard concentrations of huUgnA. Standards or urine samples were diluted into bioassay medium (1 mM 3-isobutyl-1-methylxanthine, 0.03 mM phenol red, 137 mM NaCl, 5.4 mM KCl, 0.25 mM Na2HPO4, 0.44 mM KH2PO4, 1.3 mM CaCl2, 1.0 mM MgSO4, 4.2 mM NaHCO3, 10 mM HEPES buffered at pH 7.0) and the pH was adjusted to 7.0, if required, using the phenol red indicator dye as a guide. This pH adjustment was necessary, as it is well-established that the response of T84 cells to UGn is highly pH dependent. […]

anesthetized rats = test: Urine flow rate during and after iv peptide infusion; type: in vivo, rat
Experimental: Rats were not fasted prior to clearance experiments and ranged in weight from 250-340 g at the time of study. Anesthesia was induced with an intraperitoneal injection of pentobarbital sodium (55 mg/kg BW) and maintained at a surgical plane by intermittent intravenous supplementation. Core temperature was maintained at 37° C. by a servo-controlled, heated operating table. Animals breathed spontaneously through a PE240 cannula inserted into the trachea. A jugular vein was catheterized with PE50 cannula tubing for intravenous infusion of isotonic saline containing FITC-labeled inulin (0.4% W/V, Sigma, St Louis Mo.) and two PE10 cannulae, one for supplemental anesthetic and the other for peptide infusions (described below in the experimental protocol section). The ureters were exposed through a midline ventral incision and cannulated with PE10 tubing about one cm from each kidney. Urine was collected over 20 min periods and the volume estimated by weight. A femoral artery was cannulated with PE50 tubing for continuous measurement of arterial blood pressure and intermittent blood samples (50 μl), taken at the mid point of each urine collection.
as §1
Group comparisons were made with one way analysis of variance (ANOVA) using peptide doses as column variables. Columns were further divided into pre-infusion, infusion, and post infusion subgroups to facilitate post hoc testing with Bonferroni's method for selected multiple comparisons. Row variables were individual measurements from each clearance period for each rat. Responses were tested for statistical significance by comparing control values during the pre-infusion, infusion and post infusion collection periods with corresponding values obtained from peptide-infused rats. Each experimental group included 5 different doses of huUgnA, huUgnB, or ST-core. Thus, fifteen comparisons were required for each measured variable in each group.

CC(C)C[C@H](NC(=O)[C@@H]1CSSC[C@@H]2NC(=O)[C@H](CC(C)C)NC(=O)[C@H](CCC(=O)O)NC(=O)[C@@H](NC(=O)[C@H](CC(=O)O)NC(=O)[C@H](CC(=O)O)NC(=O)[C@@H](N)CC(N)=O)CSSC[C@H](NC(=O)[C@H](C)NC(=O)[C@H](C(C)C)NC(=O)[C@H](CC(N)=O)NC(=O)[C@H](C(C)C)NC2=O)C(=O)N[C@@H]([C@@H](C)O)C(=O)NCC(=O)N1)C(=O)O (single isomer, unassigned) [huUgnA, Asn Asp Asp Cys Glu Leu Cys Val Asn Val Ala Cys Thr Gly Cys Leu, reference compound]
conversion from one isoform to the other during storage [1]: did not occur
stability of identity and properties in vivo [2]: sufficiently stable for use in acute animal studies
isomerization in vivo, LC-MS of urine at peak peptide excretion ([2]; iv infusion, anesthetized rat): essentially no isomerization had occurred
return of urinary GC-C stimulating activity to baseline after infusion was terminated ([2]; iv infusion, anesthetized rat): within an hour
time to appearance of GC-C stimulating activity in urine from start of infusion ([2]; iv infusion, anesthetized rat): ≤ 20 min
GC-C stimulating activity recovered in urine ([2]; iv infusion, anesthetized rat): a significant amount
V (urine flow rate) (anesthetized rats; huUgnA 12 nmol, Infusion): 2.34 ± 0.14 μl/min/g KW
V (urine flow rate) (anesthetized rats; huUgnA 12 nmol, Post-infuse): 2.73 ± 0.14 μl/min/g KW
V (urine flow rate) (anesthetized rats; huUgnA 12 nmol, Pre-infuse): 2.07 ± 0.23 μl/min/g KW
V (urine flow rate) (anesthetized rats; huUgnA 25 nmol, Infusion): 2.98 ± 0.28 μl/min/g KW
V (urine flow rate) (anesthetized rats; huUgnA 25 nmol, Post-infuse, * p<0.05 vs time control): 3.53 ± 0.25* μl/min/g KW
V (urine flow rate) (anesthetized rats; huUgnA 25 nmol, Pre-infuse): 2.13 ± 0.17 μl/min/g KW
V (urine flow rate) (anesthetized rats; huUgnA 50 nmol, Infusion): 2.32 ± 0.16 μl/min/g KW
V (urine flow rate) (anesthetized rats; huUgnA 50 nmol, Post-infuse): 3.07 ± 0.20 μl/min/g KW
V (urine flow rate) (anesthetized rats; huUgnA 50 nmol, Pre-infuse): 2.01 ± 0.13 μl/min/g KW
V (urine flow rate) (anesthetized rats; huUgnA 100 nmol, Infusion): 2.48 ± 0.26 μl/min/g KW
V (urine flow rate) (anesthetized rats; huUgnA 100 nmol, Post-infuse): 2.67 ± 0.23 μl/min/g KW
V (urine flow rate) (anesthetized rats; huUgnA 100 nmol, Pre-infuse): 1.76 ± 0.22 μl/min/g KW
V (urine flow rate) (anesthetized rats; huUgnA 200 nmol, Infusion): 2.84 ± 0.40 μl/min/g KW
V (urine flow rate) (anesthetized rats; huUgnA 200 nmol, Post-infuse, ** p<0.01 vs time control): 4.12 ± 0.35** μl/min/g KW
V (urine flow rate) (anesthetized rats; huUgnA 200 nmol, Pre-infuse): 2.14 ± 0.39 μl/min/g KW

CC(C)C[C@H](NC(=O)[C@@H]1CSSC[C@@H]2NC(=O)[C@H](CC(C)C)NC(=O)[C@H](CCC(=O)O)NC(=O)[C@@H](NC(=O)[C@H](CC(=O)O)NC(=O)[C@H](CC(=O)O)NC(=O)[C@@H](N)CC(N)=O)CSSC[C@H](NC(=O)[C@H](C)NC(=O)[C@H](C(C)C)NC(=O)[C@H](CC(N)=O)NC(=O)[C@H](C(C)C)NC2=O)C(=O)N[C@@H]([C@@H](C)O)C(=O)NCC(=O)N1)C(=O)O (single isomer, unassigned) [huUgnB, Asn Asp Asp Cys Glu Leu Cys Val Asn Val Ala Cys Thr Gly Cys Leu]
conversion from one isoform to the other during storage [1]: did not occur
stability of identity and properties in vivo [2]: sufficiently stable for use in acute animal studies
isomerization in vivo, LC-MS of urine at peak peptide excretion ([2]; iv infusion, anesthetized rat): a clearly discernable huUgnB signal along with a barely detectible huUgnA signal
GC-C stimulating activity recovered in urine ([2]; iv infusion, anesthetized rat): very little
V (urine flow rate) (anesthetized rats; huUgnB 9 nmol, Infusion): 2.22 ± 0.19 μl/min/g KW
V (urine flow rate) (anesthetized rats; huUgnB 9 nmol, Post-infuse): 2.55 ± 0.18 μl/min/g KW
V (urine flow rate) (anesthetized rats; huUgnB 9 nmol, Pre-infuse): 1.84 ± 0.28 μl/min/g KW
V (urine flow rate) (anesthetized rats; huUgnB 18 nmol, Infusion): 2.40 ± 0.15 μl/min/g KW
V (urine flow rate) (anesthetized rats; huUgnB 18 nmol, Post-infuse): 3.11 ± 0.32 μl/min/g KW
V (urine flow rate) (anesthetized rats; huUgnB 18 nmol, Pre-infuse): 1.79 ± 0.14 μl/min/g KW
V (urine flow rate) (anesthetized rats; huUgnB 35 nmol, Infusion): 2.53 ± 0.16 μl/min/g KW
V (urine flow rate) (anesthetized rats; huUgnB 35 nmol, Post-infuse, *** p<0.005 vs time control): 3.84 ± 0.27*** μl/min/g KW
V (urine flow rate) (anesthetized rats; huUgnB 35 nmol, Pre-infuse): 2.38 ± 0.25 μl/min/g KW
V (urine flow rate) (anesthetized rats; huUgnB 70 nmol, Infusion): 3.11 ± 0.71 μl/min/g KW
V (urine flow rate) (anesthetized rats; huUgnB 70 nmol, Post-infuse, * p<0.05 vs time control): 3.92 ± 0.5* μl/min/g KW
V (urine flow rate) (anesthetized rats; huUgnB 70 nmol, Pre-infuse): 2.04 ± 0.20 μl/min/g KW
V (urine flow rate) (anesthetized rats; huUgnB 140 nmol, Infusion): 2.71 ± 0.40 μl/min/g KW
V (urine flow rate) (anesthetized rats; huUgnB 140 nmol, Post-infuse, ** p<0.01 vs time control): 4.50 ± 0.80** μl/min/g KW
V (urine flow rate) (anesthetized rats; huUgnB 140 nmol, Pre-infuse): 2.24 ± 0.14 μl/min/g KW
